Source: PMC9313812, “The Pseudo‐Natural Product Rhonin Targets RHOGDI” (Angewandte Chemie (International Ed. in English), 2022)

Experiments:
RHOGDI1-RAC1 interaction = target: T1, RHOGDI1-RAC1 interaction (Homo sapiens, UniProt P52565); assay: Fluorescence polarization: titration of TAMRA-GDP-bound RAC1 with RHOGDI1 in presence of compound; assay type: binding; settings: Cheng-Prusoff equation using data from Figure S6f
T1 construct: GST; made in house; host or cells: RHOGDI1: E. coli; GerGer-RAC1: insect cells (TNAO38)
T1 sequence (P52565 1-204): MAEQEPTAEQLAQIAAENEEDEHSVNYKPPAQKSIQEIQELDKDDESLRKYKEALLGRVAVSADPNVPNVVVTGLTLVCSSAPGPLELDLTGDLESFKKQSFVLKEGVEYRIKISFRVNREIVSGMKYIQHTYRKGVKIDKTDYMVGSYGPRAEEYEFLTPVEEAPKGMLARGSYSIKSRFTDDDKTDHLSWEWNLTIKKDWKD
Protocol: cilia were stained with an antibody against acetylated tubulin. SMO was marked with an anti-SMO antibody and DAPI was used to stain the nuclei. For quantification of cilia, at least 100 cilia per condition and biological replicate were analyzed for the intensity of anti-acetylated tubulin antibody staining. The results of one representative biological replicate are shown and each data point represents the intensity value of one single cilium. Statistical significance was evaluated using an unpaired t-test with a confidence interval of 95 % (p ≤ n.s.). […]
Label-free quantification (LFQ) intensities were logarithmized (log2) and proteins, which were not three times quantified in at least one of the groups, were filtered off. […]
Fluorescence polarization
The binding of probe 10 to RHOGDI1-3 was confirmed by fluorescence polarization experiments. […] The change in fluorescence polarization was monitored at an excitation / emission wavelengths of 535 nm and 593 nm, respectively. […]
To determine the effect of 7a on the binding of RHOGDI1 to non-prenylated RAC1-GDP, fluorescence polarization measurements were performed by titrating 1 µM TAMRA-GDP-bound RAC1 with increasing concentrations of RHOGDI1 in the presence and absence of 50 µM 7a in buffer containing 30 mM Tris-HCl, pH 7.5, 150 mM NaCl, 5 mM MgCl2, 1% DMSO. […]

RHOGDI1 = target: T2, RHOGDI1 (Homo sapiens, UniProt P52565); assay: Limited proteolysis mass spectrometry (LiP-MS); assay type: binding; settings: 100 μM compound
T2 construct: GST; made in house; host or cells: E. coli (XL1-Blue / BL21)

[1] = test system: GTP-bound RHO GTPases (RHOA, RAC1, CDC42); assay: G-LISA activation assays; assay type: cell-based; settings: 10 μM, 24 h
Protocol: 40,000 x g for 30 min at 4°C. Supernatants were collected as cytoplasmic fraction and pellets were resuspended into a homogenization buffer (0.25 M sucrose, 20 mM Tris/HCl pH 7.4, 25 mM KCl, 5 mM MgCl2) and further centrifuged (2 h at 100,000 x g) using an iodixanol (OptiPrep, Axis Shield) gradient solution. Obtained fractions were used for immunoblotting.
NIH/3T3 cells were seeded in a 96 plate (10,000 cell per well/ plate name: Essen Bioscience NO 4379). NIH/3T3 cells were grown till 80% confluence and then serum starved (0 % FCS) for 24 h. Scratch was performed using the Incucyte Woundmaker Tool. Next, 10 µM Rhonin was added to the wells. As controls, 2 µg/ml RHO inhibitor I (cat#CT04/ cytoskeleton) and 0.5% DMSO were used. Cell migration was monitored using IncuCyte ZOOM for a period of 48 h. The images were analyzed by the Incucyte Scratch Wound Analysis Software.
G-LISA activation assays for RHOA, RAC1 and CDC42 […]
GTPase primary antibody (RAC1, CDC42 or RHOA) was added and the tubes and were incubated for 45 min at room temperature. […] Absorption was detected at 490 nm using a plate reader (Tecan Sparks).
Aqueous solubility of compounds was assessed by determination of the kinetic solubility of a test compound in aqueous buffer compared to a solution in organic solvent (acetonitrile). […]

COC(=O)C1(C(CC(=O)c2cccnc2)c2ccccc2)N=C(c2ccc(Br)cc2)C2C(=O)N(C)C(=O)C21 (stereo not drawn) [7l]
Ki (RHOGDI1-RAC1 interaction): ~2.2 µM | Protection of RHOGDI1 peptides from proteinase K-mediated proteolysis (in words) (RHOGDI1): several peptides in the 179–199 amino acid sequence were protected | Levels of GTP-bound RHO GTPases (in words) [1]: increased
